Assay results taken from ChEMBL document CHEMBL4342416, “Indole: A privileged scaffold for the design of anti-cancer agents” (Eur J Med Chem, 2019).
Converted amounts (≈) assume the structure as drawn. Blank lines part the entries; values can stand above or below the compound they belong to.

Tests used:
[1] = biological target: Polyamine deacetylase HDAC10 (Homo sapiens, UniProt Q969S8); assay: Inhibition of HDAC10 (unknown origin)
Histone deacetylase 1 = Histone deacetylase 1 (Homo sapiens, UniProt Q13547)
Chain of Histone deacetylase 1 (Q13547 whole entry): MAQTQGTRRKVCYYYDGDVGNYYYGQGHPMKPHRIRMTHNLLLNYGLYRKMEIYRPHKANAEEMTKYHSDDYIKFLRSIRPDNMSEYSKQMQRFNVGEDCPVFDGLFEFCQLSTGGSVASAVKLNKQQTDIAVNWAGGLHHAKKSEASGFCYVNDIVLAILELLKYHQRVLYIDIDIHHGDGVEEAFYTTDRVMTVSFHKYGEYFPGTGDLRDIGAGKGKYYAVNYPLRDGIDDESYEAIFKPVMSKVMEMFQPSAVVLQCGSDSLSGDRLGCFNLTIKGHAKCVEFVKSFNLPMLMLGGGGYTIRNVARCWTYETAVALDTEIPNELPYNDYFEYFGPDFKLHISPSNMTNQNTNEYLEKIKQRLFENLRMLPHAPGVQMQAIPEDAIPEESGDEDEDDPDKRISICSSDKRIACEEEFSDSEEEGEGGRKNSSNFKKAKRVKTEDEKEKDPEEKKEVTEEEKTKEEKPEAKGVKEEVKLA
Description: Inhibition of HDAC1 (unknown origin)

Histone deacetylase 2 = Histone deacetylase 2 (Homo sapiens, UniProt Q92769); assay: Inhibition of HDAC2 (unknown origin)
Chain of Histone deacetylase 2 (Q92769 whole entry): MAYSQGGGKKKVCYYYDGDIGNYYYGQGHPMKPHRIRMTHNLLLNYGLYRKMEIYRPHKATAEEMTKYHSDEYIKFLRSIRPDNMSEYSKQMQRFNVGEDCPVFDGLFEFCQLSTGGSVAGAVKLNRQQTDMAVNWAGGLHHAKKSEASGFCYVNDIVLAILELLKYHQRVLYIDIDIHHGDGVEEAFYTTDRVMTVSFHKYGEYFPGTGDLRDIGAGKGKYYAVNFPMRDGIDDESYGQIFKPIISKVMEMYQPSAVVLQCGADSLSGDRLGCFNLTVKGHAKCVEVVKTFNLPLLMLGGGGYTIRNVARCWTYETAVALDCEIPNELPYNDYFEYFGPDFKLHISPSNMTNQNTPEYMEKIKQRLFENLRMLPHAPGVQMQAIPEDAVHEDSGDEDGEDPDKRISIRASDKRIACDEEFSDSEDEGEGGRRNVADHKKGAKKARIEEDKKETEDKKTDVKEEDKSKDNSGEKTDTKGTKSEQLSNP

Histone deacetylase 3 = Histone deacetylase 3 (Homo sapiens, UniProt O15379); assay: Inhibition of HDAC3 (unknown origin)
Chain of Histone deacetylase 3 (O15379 whole entry): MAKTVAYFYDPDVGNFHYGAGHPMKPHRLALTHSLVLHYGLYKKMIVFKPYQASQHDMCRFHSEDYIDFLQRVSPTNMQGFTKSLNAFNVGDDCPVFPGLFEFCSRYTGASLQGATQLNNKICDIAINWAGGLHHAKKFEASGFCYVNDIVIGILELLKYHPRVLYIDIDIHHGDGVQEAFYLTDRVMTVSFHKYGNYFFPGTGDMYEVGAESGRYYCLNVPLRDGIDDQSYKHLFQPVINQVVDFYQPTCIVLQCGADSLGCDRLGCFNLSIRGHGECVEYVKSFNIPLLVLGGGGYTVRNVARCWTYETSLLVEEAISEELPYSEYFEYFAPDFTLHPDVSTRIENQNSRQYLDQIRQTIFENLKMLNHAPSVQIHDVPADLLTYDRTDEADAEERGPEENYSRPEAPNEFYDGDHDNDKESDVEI

HuCC-A1 = assay: Antiproliferative activity against human HuCCa1 cells assessed as reduction in cell viability after 3 days by MTT assay; format: functional, cell-based; conditions: HuCC-A1, 72 h
A549 [2] = assay: Antiproliferative activity against human A549 cells assessed as reduction in cell viability after 72 hrs by MTT assay; format: functional, cell-based; conditions: A549, 72 h
[3] = Inhibition of bovine brain microtubule polymerization incubated for 60 mins by spectrophotometric method; design: species or system Bos taurus
[4] = biological target: Induced myeloid leukemia cell differentiation protein Mcl-1 (Homo sapiens, UniProt Q07820); assay: Inhibition of MCL1 (unknown origin)
Chain of Induced myeloid leukemia cell differentiation protein Mcl-1 (Q07820 whole entry): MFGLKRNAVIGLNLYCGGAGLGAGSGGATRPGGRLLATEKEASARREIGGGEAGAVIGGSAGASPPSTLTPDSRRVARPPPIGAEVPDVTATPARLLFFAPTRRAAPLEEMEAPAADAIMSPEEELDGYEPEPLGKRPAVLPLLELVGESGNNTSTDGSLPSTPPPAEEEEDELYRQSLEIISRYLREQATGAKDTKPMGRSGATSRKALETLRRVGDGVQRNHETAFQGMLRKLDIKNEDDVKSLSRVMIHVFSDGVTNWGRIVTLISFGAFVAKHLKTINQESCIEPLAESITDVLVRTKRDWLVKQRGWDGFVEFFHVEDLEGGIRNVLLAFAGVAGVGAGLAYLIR

Aromatase = Aromatase (Homo sapiens, UniProt P11511); assay: Inhibition of recombinant human CYP19 using MFC as substrate incubated for 30 mins in presence of NADPH by fluorescence based assay
[5] = biological target: Sigma non-opioid intracellular receptor 1 (Cavia porcellus, UniProt Q60492); assay: Displacement of (+)-[3H]pentazocine from sigma1 receptor in guinea pig brain membranes; format: cell membranes
Tubulin = Tubulin (Bos taurus, UniProt Q6B856+Q862L2+Q862F3); assay: Inhibition of bovine brain tubulin polymerization by spectrometric analysis
HepG2 [6] = assay: Antiproliferative activity against human HepG2 cells assessed as reduction in cell viability after 48 hrs by MTT assay; format: functional, cell-based; conditions: HepG2, 48 h
A549 [7] = assay: Antiproliferative activity against human A549 cells assessed as reduction in cell viability after 48 hrs by MTT assay; format: functional, cell-based; conditions: A549, 48 h
MCF7 [8] = assay: Antiproliferative activity against human MCF7 cells assessed as reduction in cell viability after 48 hrs by MTT assay; format: functional, cell-based; conditions: MCF7, 48 h
HeLa = assay: Antiproliferative activity against human HeLa cells assessed as reduction in cell viability after 48 hrs by MTT assay; format: functional, cell-based
THP-1 = assay: Growth inhibition of human THP1 cells incubated for 72 hrs by trypan blue assay; format: functional; conditions: THP-1, 72 h
[9] = biological target: Histone deacetylase 3/Nuclear receptor corepressor 2 (HDAC3/NCoR2) (Homo sapiens, UniProt O15379); assay: Inhibition of recombinant human C-terminal GST/His-tagged HDAC3 (1 to 428 residues) co-expressed with human N-terminal GST-tagged NCOR2 (395 to 489 residues) in baculovirus infected Sf9 cells using Boc-Lys(Ac)-AMC as substrate preincubated for 15 mins followed by substrate addition and measured after 60 mins by fluorometric method
Chain of Histone deacetylase 3/Nuclear receptor corepressor 2 (HDAC3/NCoR2) (O15379 whole entry, the tested form may be a part): as the sequence (O15379 whole entry) above
Chain of Histone deacetylase 3/Nuclear receptor corepressor 2 (HDAC3/NCoR2) (Q9Y618 whole entry, further chain, the tested form may be a part): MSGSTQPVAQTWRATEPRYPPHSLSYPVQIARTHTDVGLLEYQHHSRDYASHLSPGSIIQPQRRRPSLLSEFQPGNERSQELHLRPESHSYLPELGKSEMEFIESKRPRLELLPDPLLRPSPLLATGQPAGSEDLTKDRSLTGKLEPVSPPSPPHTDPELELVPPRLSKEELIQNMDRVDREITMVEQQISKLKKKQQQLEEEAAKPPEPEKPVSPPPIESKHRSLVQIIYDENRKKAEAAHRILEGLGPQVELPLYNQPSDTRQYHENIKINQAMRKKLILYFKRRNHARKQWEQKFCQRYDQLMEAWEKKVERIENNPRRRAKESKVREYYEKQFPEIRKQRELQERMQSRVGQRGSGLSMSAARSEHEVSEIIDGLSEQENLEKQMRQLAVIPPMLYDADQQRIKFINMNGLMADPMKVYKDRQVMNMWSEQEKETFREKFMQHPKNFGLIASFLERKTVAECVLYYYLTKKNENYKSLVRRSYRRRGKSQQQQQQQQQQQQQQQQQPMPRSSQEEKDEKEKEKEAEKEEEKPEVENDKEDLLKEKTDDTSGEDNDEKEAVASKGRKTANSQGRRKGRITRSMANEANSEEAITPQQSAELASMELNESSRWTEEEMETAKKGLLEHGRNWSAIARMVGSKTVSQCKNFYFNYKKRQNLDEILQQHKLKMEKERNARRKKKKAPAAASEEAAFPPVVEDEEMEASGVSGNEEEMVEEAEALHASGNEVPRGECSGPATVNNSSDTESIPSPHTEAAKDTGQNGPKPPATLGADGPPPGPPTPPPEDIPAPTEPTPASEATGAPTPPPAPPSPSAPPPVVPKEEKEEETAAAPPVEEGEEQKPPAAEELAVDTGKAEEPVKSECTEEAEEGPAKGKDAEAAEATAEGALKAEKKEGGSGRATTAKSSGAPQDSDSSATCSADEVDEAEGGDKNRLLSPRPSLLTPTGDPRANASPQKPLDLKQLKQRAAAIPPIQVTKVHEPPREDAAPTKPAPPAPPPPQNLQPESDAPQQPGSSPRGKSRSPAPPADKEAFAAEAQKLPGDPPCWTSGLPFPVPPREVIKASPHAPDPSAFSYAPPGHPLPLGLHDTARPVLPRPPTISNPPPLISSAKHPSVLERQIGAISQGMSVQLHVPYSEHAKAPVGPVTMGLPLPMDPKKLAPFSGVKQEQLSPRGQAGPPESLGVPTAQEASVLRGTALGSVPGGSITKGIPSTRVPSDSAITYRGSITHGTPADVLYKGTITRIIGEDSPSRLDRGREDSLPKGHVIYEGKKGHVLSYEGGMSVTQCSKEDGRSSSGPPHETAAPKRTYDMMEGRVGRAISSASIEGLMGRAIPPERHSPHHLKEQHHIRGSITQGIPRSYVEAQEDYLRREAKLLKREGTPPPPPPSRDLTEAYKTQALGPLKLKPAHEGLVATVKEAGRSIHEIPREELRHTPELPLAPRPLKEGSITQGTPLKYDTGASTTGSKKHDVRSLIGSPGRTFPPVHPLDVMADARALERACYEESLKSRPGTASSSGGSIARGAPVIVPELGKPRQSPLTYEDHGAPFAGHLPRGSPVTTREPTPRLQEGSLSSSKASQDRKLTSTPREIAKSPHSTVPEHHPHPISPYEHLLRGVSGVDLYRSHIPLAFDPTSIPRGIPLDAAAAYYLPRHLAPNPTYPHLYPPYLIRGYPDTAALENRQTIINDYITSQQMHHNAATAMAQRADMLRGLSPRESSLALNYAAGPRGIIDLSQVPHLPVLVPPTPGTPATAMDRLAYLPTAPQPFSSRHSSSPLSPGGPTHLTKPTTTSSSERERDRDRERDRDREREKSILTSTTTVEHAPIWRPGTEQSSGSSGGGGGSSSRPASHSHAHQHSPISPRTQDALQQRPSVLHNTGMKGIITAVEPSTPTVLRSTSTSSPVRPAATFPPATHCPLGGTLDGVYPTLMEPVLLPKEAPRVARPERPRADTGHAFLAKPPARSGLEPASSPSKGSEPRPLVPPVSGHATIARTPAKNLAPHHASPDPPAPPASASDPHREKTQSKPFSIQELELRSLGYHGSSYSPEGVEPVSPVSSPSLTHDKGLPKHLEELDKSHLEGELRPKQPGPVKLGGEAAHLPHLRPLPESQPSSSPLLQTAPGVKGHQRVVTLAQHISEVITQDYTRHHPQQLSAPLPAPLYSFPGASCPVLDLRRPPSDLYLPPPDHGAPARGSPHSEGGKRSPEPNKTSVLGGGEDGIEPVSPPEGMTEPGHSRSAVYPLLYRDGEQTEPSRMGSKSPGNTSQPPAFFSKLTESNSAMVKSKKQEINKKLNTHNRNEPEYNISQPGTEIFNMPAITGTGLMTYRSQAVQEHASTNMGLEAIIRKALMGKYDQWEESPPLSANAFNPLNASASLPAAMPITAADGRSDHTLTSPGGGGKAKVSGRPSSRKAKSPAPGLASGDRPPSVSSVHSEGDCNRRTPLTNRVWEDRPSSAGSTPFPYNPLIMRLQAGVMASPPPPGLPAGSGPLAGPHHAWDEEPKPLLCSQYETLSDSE

[10] = biological target: Bromodomain-containing protein 4 (Homo sapiens) (UniProt O60885); assay: Inhibition of GST-tagged BRD4 bromodomain 1/2 (unknown origin) at 10 uM incubated for 3 hrs by fluorescence based assay relative to control
MOLT-3 = assay: Antiproliferative activity against human MOLT3 cells assessed as reduction in cell viability after 3 days by MTT assay; format: functional, cell-based; conditions: MOLT-3, 72 h
K562 [11] = assay: Antiproliferative activity against human K562 cells assessed as reduction in cell viability by MTT assay; format: functional, cell-based
HCT-116 = assay: Antiproliferative activity against human HCT116 cells assessed as reduction in cell viability by MTT assay; format: functional, cell-based
Histone deacetylase 8 = Histone deacetylase 8 (Homo sapiens, UniProt Q9BY41); assay: Inhibition of HDAC8 (unknown origin) by fluorescence based assay
[12] = biological target: Protein deacetylase HDAC6 (Homo sapiens, UniProt Q9UBN7); assay: Inhibition of HDAC6 (unknown origin) by fluorescence based assay
LoVo = assay: Antiproliferative activity against human LoVo cells assessed as reduction in cell viability by MTT assay; format: functional, cell-based
HepG2 [13] = assay: Antiproliferative activity against human HepG2 cells assessed as reduction in cell viability by MTT assay; format: functional, cell-based
MCF7 [14] = assay: Antiproliferative activity against human MCF7 cells assessed as reduction in cell viability by MTT assay; format: functional, cell-based
HepG2 [15] = assay: Antiproliferative activity against human HepG2 cells assessed as reduction in cell viability after 72 hrs by MTT assay; format: functional, cell-based; conditions: HepG2, 72 h
K562 [16] = assay: Antiproliferative activity against human K562 cells assessed as reduction in cell viability after 72 hrs by MTT assay; format: functional, cell-based; conditions: K562, 72 h
HT-29 = assay: Antiproliferative activity against human HT-29 cells assessed as reduction in cell viability after 48 hrs by MTT assay; format: functional, cell-based; conditions: HT-29, 48 h

Chain of Polyamine deacetylase HDAC10 (Q969S8 whole entry): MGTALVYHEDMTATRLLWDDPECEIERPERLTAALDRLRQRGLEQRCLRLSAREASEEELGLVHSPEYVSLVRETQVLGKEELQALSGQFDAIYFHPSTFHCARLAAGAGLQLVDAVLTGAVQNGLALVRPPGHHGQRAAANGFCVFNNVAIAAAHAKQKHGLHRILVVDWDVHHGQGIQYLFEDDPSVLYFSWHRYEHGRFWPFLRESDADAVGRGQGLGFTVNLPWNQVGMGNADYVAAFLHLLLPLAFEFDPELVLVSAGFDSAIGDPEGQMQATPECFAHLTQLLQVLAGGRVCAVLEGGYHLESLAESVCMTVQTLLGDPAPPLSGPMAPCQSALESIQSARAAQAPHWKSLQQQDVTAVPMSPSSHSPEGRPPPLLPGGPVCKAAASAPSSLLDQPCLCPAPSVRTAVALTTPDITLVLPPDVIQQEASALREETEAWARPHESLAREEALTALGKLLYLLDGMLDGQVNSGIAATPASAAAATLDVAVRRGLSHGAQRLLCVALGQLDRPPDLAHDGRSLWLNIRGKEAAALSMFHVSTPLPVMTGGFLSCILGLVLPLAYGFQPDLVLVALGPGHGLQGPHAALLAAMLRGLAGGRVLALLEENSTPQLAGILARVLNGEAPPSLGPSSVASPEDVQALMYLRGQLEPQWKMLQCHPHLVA

IC50 [1]: 78 nM | IC50 (Histone deacetylase 1): 95 nM | IC50 (Histone deacetylase 2): 160 nM | IC50 (Histone deacetylase 3): 67 nM
Compound: Nc1ccc(F)cc1NC(=O)c1ccc(CNC(=O)/C=C/c2cccnc2)cc1

IC50 (A549 [2]): 8740 nM
Compound: O=S(=O)(NCCc1c(C(c2ccccc2O)c2[nH]c3ccccc3c2CCNS(=O)(=O)c2ccc(Cl)cc2)[nH]c2ccccc12)c1ccc(Cl)cc1
IC50 (HuCC-A1): 7750 nM

Ki [3]: 85 nM
Compound: CC[C@]1(O)C[C@H]2CN(CCc3c([nH]c4ccccc34)[C@@](C(=O)OC)(c3cc4c(cc3OC)N(C=O)[C@H]3[C@@](O)(C(=O)OC)[C@H](OC(C)=O)[C@]5(CC)C=CCN6CC[C@]43[C@@H]65)C2)C1 [VINCRISTINE]

Ki [4]: 2.4 nM
Compound: Cc1cc(OCCCc2c(C(=O)NS(=O)(=O)c3ccc(C(=O)NCc4ccccc4)o3)[nH]c3c(-c4c(C)n[nH]c4C)c(Cl)ccc23)cc(C)c1Cl

IC50 (Aromatase): 8720 nM
Compound: Cc1[nH]c2ccccc2c1/C=N\Nc1ccc(Cl)cc1

Ki [5]: 5.34 nM
Compound: COc1cc2c(cc1OC)CN(CCCCc1cn(-c3ccc(F)cc3)c3ccccc13)CC2

IC50 (Tubulin): 2120 nM | IC50 (HepG2 [6]): 310 nM | IC50 (A549 [7]): 260 nM | IC50 (MCF7 [8]): 290 nM | IC50 (HeLa): 210 nM
Compound: COc1cc(C2=NN(C(N)=O)C(c3cn(C)c4ccc(Br)cc34)C2)cc(OC)c1OC (stereo unspecified)

GI50 (THP-1): 7820 to 24200 nM | IC50 [9]: 5 nM | inhibition [10]: 88%
Compound: Cc1noc(C)c1-c1ccc2c(c1)c(Cc1ccc(F)cc1)cn2CCCCCCC(=O)NO

IC50 (MOLT-3): 3.95 µg/mL (≈ 4.97 µM)
Compound: O=[N+]([O-])c1ccc(S(=O)(=O)NCCc2c(C(c3ccccc3O)c3[nH]c4ccccc4c3CCNS(=O)(=O)c3ccc([N+](=O)[O-])cc3)[nH]c3ccccc23)cc1

IC50 (K562 [11]): 3570 to 6210 nM | IC50 (HCT-116): 3570 to 6210 nM | IC50 (Histone deacetylase 8): 380 nM | IC50 [12]: 290 nM | IC50 (LoVo): 3570 to 6210 nM | IC50 (HepG2 [13]): 3570 to 6210 nM | IC50 (MCF7 [14]): 3570 to 6210 nM
Compound: COc1ccc2[nH]cc(Cn3cc(COc4ccc(/C=C/C(=O)NO)cc4OC)nn3)c2c1

IC50 (HepG2 [15]): 75 nM | IC50 (K562 [16]): 55 nM | IC50 (A549 [2]): 305 nM
Compound: COc1cc(S(=O)(=O)/C=C/c2cccc3[nH]ccc23)cc(OC)c1OC

IC50 (A549 [7]): 14400 nM | IC50 (HT-29): 5560 nM
Compound: CN1CCN(c2ncc([N+](=O)[O-])c(Nc3c(C(=O)c4cccs4)[nH]c4cc(Cl)ccc34)n2)CC1
